{
  "source": "Sander's compilation of Henry's law constants (doi:10.1016/j.chroma.2007.11.025)",
  "origin": "cited, not measured here",
  "data": [
    {"experiment": "Henry solubility constant Hcp at 298.15 K (mol/(m3 Pa))", "conditions": "reference: Sieg et al. (2008); cited value", "values": [
      {"smiles": "Cc1ccccc1C", "note": "[1,2-dimethylbenzene]", "Henry solubility constant Hcp": 0.0019},
      {"smiles": "Cc1cccc(C)c1", "note": "[1,3-dimethylbenzene]", "Henry solubility constant Hcp": 0.0014},
      {"smiles": "Cc1ccc(C)cc1", "note": "[1,4-dimethylbenzene]", "Henry solubility constant Hcp": 0.0014},
      {"smiles": "ClCCBr", "note": "[1-chloro-2-bromoethane]", "Henry solubility constant Hcp": 0.011},
      {"smiles": "c1ccccc1", "note": "[benzene]", "Henry solubility constant Hcp": 0.0018},
      {"smiles": "CCCCCCCCCC=O", "note": "[decanal]", "Henry solubility constant Hcp": 0.0055},
      {"smiles": "CCc1ccccc1", "note": "[ethylbenzene]", "Henry solubility constant Hcp": 0.0013},
      {"smiles": "Fc1ccccc1", "note": "[fluorobenzene]", "Henry solubility constant Hcp": 0.0016},
      {"smiles": "CCCCCCC=O", "note": "[heptanal]", "Henry solubility constant Hcp": 0.037},
      {"smiles": "Cc1ccccc1", "note": "[methylbenzene]", "Henry solubility constant Hcp": 0.0015},
      {"smiles": "CCCCCCCCC=O", "note": "[nonanal]", "Henry solubility constant Hcp": 0.014},
      {"smiles": "CCCCCCCC=O", "note": "[octanal]", "Henry solubility constant Hcp": 0.019}
    ]}
  ]
}
